Counter-ions that a name gives are not always drawn.
Legend:
[1] = tested on: mice; conditions: P. acnes intraperitoneally, lipopolysaccharide intraperitoneally 7 days later; cited from earlier work
[2] = agent containing berberine as an active ingredient; cited from earlier work
[3] = tested on: HSP47; test: Inhibition of HSP47 production in heat-shocked human cancer cell lines (Western blotting); format: cell-based; conditions: Western blot, 20 µM
Description: The following various human cancer cell lines were cultured under 5% CO2, at 37 °C, except for the heat shock treatment period. The lung cancer cell line H69 (ATCC HTB 119), the stomach cancer cell line KATO III (ATCC HTB 103), the colon cancer cell line COLO 205 (ATCC CCL 222), and the prostate cancer cell line DU145 (ATCC HTB 81) were cultured in an RPMI1640 medium containing 10% inactivated FBS.
The breast cancer cell line MCF7 (ATCC HTB 22) was cultured in an RPMI1640 medium containing 10^-8 M β-estradiol and 10% inactivated FBS.
The kidney cancer cell line ACHN (ATCC CRL 1611) was cultured in an MEM medium containing 10% inactivated FBS.
The berberine hydrochloride of the formula (III) (the final concentration = 20 µM: Matsuura Yakugyo) was added to each medium of the above human cancer cell lines 2 days after the inoculation. After the berberine hydrochloride treatment for 24 hours, a heat shock was applied at 45 °C for 15 minutes, and the cells were then cultured at 37 °C overnight. The control tests were carried out by performing the above procedures except that the berberine hydrochloride was not added.
The cells treated in the above (2) were homogenized, and the amounts of HSP47 produced were measured by the Western blotting method.
The cells treated in the above (2) were washed with PBS(-), and 1 ml of lysis buffer [1.0% NP-40, 0.15 M sodium chloride, 50 mM Tris-HCl (pH 8.0), 5 mM-EDTA, 2 mM-N-ethylmaleimide, 2 mM phenylmethylsulfonyl fluoride, 2 µg/ml leupeptin, and 2 µg/ml pepstatin] was added. The whole was allowed to stand for 20 minutes on ice, and then centrifuged at 4 °C and 12000 rpm for 20 minutes. The resulting supernatant (10 µl) was added to 790 µl of PBS(-), and then 200 µl of a protein assay dye reagent solution (Dye Reagent Concentrate: Bio-Rad Laboratories, Catalogue No. 500-0006) was added. The whole was allowed to stand at room temperature for 5 minutes, and the absorbance at 595 nm was measured to determine the amounts of proteins.
For the SDS-polyacrylamide gel electrophoresis (SDS-PAGE) of the samples, the protein concentration of which were measured, aliquots containing the same amount of protein were loaded onto the gel. The SDS-PAGE was performed according to the Laemmli method. After the electrophoresis, the blotting and then blocking were carried out in accordance with the methods described in Example 1. More particularly, the gel was brought into contact with a 0.45 µm nitrocellulose membrane (Schleicher & Schuell, Catalogue No. 401196) at room temperature and 100 V, using a protein-transferring apparatus (Trans-Blot Electrophoretic Transfer Cell: Bio-Rad), and blotting was carried out for 3 hours. The blotting buffer used was same as that used in Example 1 (3). After blotting, the nitrocellulose membrane was incubated in a 10% skimmed milk-PBS(-) solution at room temperature for 30 minutes, to block non-specific bindings.
After blocking, the first antibody reaction was carried out on the nitrocellulose membrane, using a screener blotter (Sanplatec), and the anti-human-HSP47 rat polyclonal antibody prepared in Example 1. Thereafter, the nitrocellulose membrane was washed with two fresh PBS(-) solutions for 5 minutes, using a slow rocking shaker, and then with four fresh PBS(-)-0.1% Tween 20 (Bio-Rad, Catalogue No. 170-6531) solutions for 15 minutes, and finally, with two fresh PBS(-) solutions for 5 minutes.
After washing, the second antibody reaction was carried out for 2 hours, using 5 ml of a solution prepared by diluting a peroxidase-labeled goat anti-rat IgG antibody (Southern Biotechnology, Catalogue No. 3030-05) 5000-fold with a PBS(-) solution containing 2% skimmed milk. After the reaction, the nitrocellulose membrane was washed with two fresh PBS(-) solutions for 5 minutes, and with five fresh PBS(-)-0.1% Tween 20 solutions for 15 minutes, using a slow rocking shaker, and finally, with two fresh PBS(-) solutions for 5 minutes. […]

SMILES | survival rate of mice [1] | anti-GEM (glomerular basement membrane) nephritis [2] | band of the molecular weight of approximately 47 kDa ([3]; breast cancer cell line MCF7) | band of the molecular weight of approximately 47 kDa ([3]; colon cancer cell line COLO 205) | band of the molecular weight of approximately 47 kDa ([3]; kidney cancer cell line ACHN, in comparison with the control tests) | band of the molecular weight of approximately 47 kDa ([3]; lung cancer cell line H69) | band of the molecular weight of approximately 47 kDa ([3]; prostate cancer cell line DU145) | band of the molecular weight of approximately 47 kDa ([3]; stomach cancer cell line KATO III)
COc1ccc2cc3[n+](cc2c1OC)CCc1cc2c(cc1-3)OCO2 [berberine] | effectively improved | effectively improved |  |  |  |  |  | 
COc1ccc2cc3[n+](cc2c1OC)CCc1cc2c(cc1-3)OCO2 [berberine hydrochloride] |  |  | no band of the molecular weight of approximately 47 kDa was detected | no band of the molecular weight of approximately 47 kDa was detected | faint | no band of the molecular weight of approximately 47 kDa was detected | no band of the molecular weight of approximately 47 kDa was detected | no band of the molecular weight of approximately 47 kDa was detected

Reference: patent EP0813871A1, “Berberine derivates for inhibiting production of HSP47” (Kureha Chemical Industry Co., Ltd., priority 1996, dated 1997)
